According to patent publication US10981893B2, “Therapeutic inhibitory compounds” (Attune Pharmaceuticals, Inc., priority 2015, dated 2021):

Key:
[1] = molecular target: kallikrein in human plasma (Homo sapiens (Human), UniProt P03952); assay: In vitro cellular assay / contact assay: kallikrein activity in ellagic acid-activated human plasma (Z-FR-2-AMC substrate); assay type: biochemical; details: human plasma activated with ellagic acid, 37° C.
Description: The ability of the compounds disclosed herein to inhibit cellular kallikrein activity was quantified and the respective EC50 value was determined.
Plasma kallikrein inhibitor C1NH (Athens Research & Technology, Cat #16-16-031509); Ellagic acid (Sigma, E2250); Substrate Z—FR-2-AMC (GL Biochem, Cat #55352); Nunc™ 96-Well Polypropylene MicroWell™ Plates (Nunc, Cat #267342)
All dilutions were prepared in an assay buffer comprising 50 mM Tris-HCl pH 7.2, 150 mM NaCl, and 0.01% Triton X-100.
Four fold serial dilutions were prepared from a 107.53 μM plasma kallikrein inhibitor C1NH stock solution, to yield ten solutions with concentrations between 20 μM and […]. Similarly, four fold serial dilutions were prepared from 10 mM stock solutions of various test compounds, to yield ten solutions with concentrations between 4 mM and 0.015 μM. The ten solutions of the test compounds, prepared by serial dilution, were further diluted 50-fold in the assay buffer.
Human plasma is thawed on ice and centrifuged for 15 min at 4° C. to remove platelets. A 1 mM stock solution of ellagic acid is diluted to 8 μM and mixed with human plasma, after removing platelets, at a ratio of 1:0.8. The mixture of human plasma and ellagic acid was further diluted 32-fold in the assay buffer, to yield the final mixture for use in the inhibition assay.
A 22.5 μL volume of the final mixture of human plasma and ellagic acid was added to a 96-well microwell plate and the plate was incubated for 15 min at 37° C.
The test compounds at various concentrations, also prepared by serial dilutions as described above, are added to the test wells. The volume of test compound added to each test well was 12.5 μL, to yield final concentrations of 20 μM, 5 μM, 1.25 μM, 312.5 nM, 78.125 nM, 19.531 nM, 4.883 nM, 1.221 nM, 0.305 nM, and 0.076 nM. Each test compound concentration was tested in duplicates.
In addition to the inhibitor control and test wells, the 96 well assay plate includes positive control wells which contained the mixture of human plasma and ellagic acid without C1NH inhibitor or test compounds, and background wells which contained neither the mixture of human plasma and ellagic acid nor the test compounds. The total volume of liquid in positive control and background wells was brought up to 35 μL, using the assay buffer.
The assay plate containing C1NH inhibitors and test compounds mixed with human plasma and ellagic acid and appropriate controls was incubated at 37° C. for 5 min. A 10 mM stock solution of substrate Z—FR-2-AMC was diluted to 133.2 μM in the assay buffer, and 15 μL of the diluted substrate was added to each well, to yield a final substrate concentration of 40 μM in each well. […]
The enzyme reaction was quantified by immediate kinetic reading of the assay plate using excitation/emission wavelengths of 330 nm/440 nm respectively. Fluorescence intensity was recorded for 60 min, using a time interval of 43 sec.
The inhibition activity of the test compounds were evaluated using the IC50 values, calculated according to the dose-response curve of the test compounds, fitted using the “log(inhibitor)-response(variable slope)” equation in GraphPadPrism software (GraphPad Software, Inc.).
The percentage inhibition was calculated using the following equation:
[formula] where, Mean(BG) is the average value of the fluorescence intensity of the background wells and Mean(PC) is the average value of the fluorescence intensity of the positive control wells. […]

human Plasma Kallikrein = human Plasma Kallikrein (Homo sapiens (Human), UniProt P03952); assay: In vitro enzyme inhibition of human plasma kallikrein (Pro-Phe-Arg-AMC cleavage); assay type: biochemical; details: PFR-AMC substrate, 37° C., read-out: hPK IC50
Chain of human Plasma Kallikrein (P03952 391-638 limits assumed): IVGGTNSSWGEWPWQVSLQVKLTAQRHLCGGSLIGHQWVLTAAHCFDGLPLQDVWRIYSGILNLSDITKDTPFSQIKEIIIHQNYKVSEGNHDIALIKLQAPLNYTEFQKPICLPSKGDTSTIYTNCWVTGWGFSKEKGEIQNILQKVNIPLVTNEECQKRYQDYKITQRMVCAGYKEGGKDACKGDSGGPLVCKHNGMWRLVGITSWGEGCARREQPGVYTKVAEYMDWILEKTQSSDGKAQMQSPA
Chain of human Plasma Kallikrein (P03952 20-390 partner limits assumed): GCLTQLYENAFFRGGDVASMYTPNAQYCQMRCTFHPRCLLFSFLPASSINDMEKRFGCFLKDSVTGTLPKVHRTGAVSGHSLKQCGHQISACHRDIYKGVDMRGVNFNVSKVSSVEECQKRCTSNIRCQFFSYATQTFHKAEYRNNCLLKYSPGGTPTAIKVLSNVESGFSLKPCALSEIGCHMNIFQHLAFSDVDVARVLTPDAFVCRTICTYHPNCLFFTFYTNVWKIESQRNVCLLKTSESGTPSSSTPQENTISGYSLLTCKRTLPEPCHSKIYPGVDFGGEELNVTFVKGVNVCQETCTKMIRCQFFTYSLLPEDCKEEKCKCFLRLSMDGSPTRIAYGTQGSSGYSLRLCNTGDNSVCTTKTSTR
Description: The ability of the compounds disclosed herein to inhibit human plasma kallikrein activity was quantified according to the procedures below.
A 10 mM solution of the test compound was made in DMSO. This solution was serially diluted 1:5 in DMSO to yield 2000, 400, 80, 16, 3.2, 0.64, 0.128, 0.0256 and 0.00512 μM compound test solutions. A control tube containing only DMSO is included. 16 μL of each compound test solution was combined with 384 μL of assay buffer (50 mM Tris-HCl pH 7.5, 150 mM NaCl, 0.01% Triton X-100) to yield a “4× test compound buffer stock”.
Separately, a 40 nM solution of human Plasma Kallikrein (Abcam) and a 93.6 μM solution Pro-Phe-Arg-AMC (Bachem) were made using assay buffer. These solutions are hereby refereed to as 4×hPK and 2×PFR-AMC, respectively.
60 μL of each 4× test compound buffer stock was combined with 60 μL of 4× hPK to yield 120 μL of “2× test compound buffer stock/2×hPK”. 50 μL was removed from this mixture and placed into duplicate wells on a Microfluor 1 Black U-bottom microtiter plate (Thermo Scientific). This plate was incubated for 5 minutes at 37° C. To each well, 50 μL of pre-warmed 2×PFR-AMC was added to start the enzymatic reaction. Cleavage of PFR-AMC was monitored in a Biotek Synergy H4 reader set at 37° C. Readings are taken every 43 seconds for 1 hour. The highest mean velocity over 20 reads (˜15 minutes) is used to calculate the IC50. The IC50 is calculated using the Gen5 (Biotek Instruments).
The ability of the compounds in Table 1 to inhibit human plasma kallikrein activity was determined and the data is shown in Table 3.

Chain of kallikrein in human plasma (P03952 391-638 limits assumed): as the sequence (P03952 391-638 limits assumed) above
Chain of kallikrein in human plasma (P03952 20-390 partner limits assumed): as the sequence (P03952 20-390 partner limits assumed) above

EC50 [1] | IC50 (human Plasma Kallikrein) | SMILES
≤ 100 nM | ≤ 100 nM | Cc1nc(N)ccc1CNC(=O)c1ccnc(Cc2ccc(Cn3ccccc3=O)c(S(C)(=O)=O)c2)c1 [Example 23, N-((6-amino-2-methylpyridin-3-yl)methyl)-2-(3-(methylsulfonyl)-4-((2-oxopyridin-1(2H)-yl)methyl)benzyl)isonicotinamide]
≤ 100 nM | ≤ 100 nM | Cc1cc(N)nc(C)c1CNC(=O)c1cncc(Cc2ccc3ncc(Cl)cc3c2)n1 [Example 25, N-((6-amino-2,4-dimethylpyridin-3-yl)methyl)-6-((3-chloroquinolin-6-yl)methyl)pyrazine-2-carboxamide]
≤ 100 nM | ≤ 100 nM | Cc1cc(N)nc(C)c1CNC(=O)c1ccc(=O)n(Cc2ccc3ncc(Cl)cc3c2)c1 [Example 21, N-((6-amino-2,4-dimethylpyridin-3-yl)methyl)-1-((3-chloroquinolin-6-yl)methyl)-6-oxo-1,6-dihydropyridine-3-carboxamide]
